The values that follow come from patent publication US10479780B2, “Aminopyrazole derivatives” (Chugai Seiyaku Kabushiki Kaisha, priority 2015, dated 2019).

Holding throughout (type): biochemical
Assay [1] deals with T1, human Src enzyme (Homo sapiens, UniProt P12931).
T1 construct: purchased Carna Biosciences, Inc. 08-173
The experiment in a line: Src enzyme inhibitory activity (time-resolved fluorometry, biotinylated peptide phosphorylation). The settings on record: biotinylated peptide phosphorylation, read-out: SRC_IC50. Put shortly:
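Compounds were tested for blocking tyrosine phosphorylation of a biotinylated peptide substrate by recombinant human Src. Phosphorylated product was quantified by time-resolved fluorometry using europium cryptate and XL665 conjugates, and IC50 was calculated against the compound-free control.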

For assay [2], the target named is T2, human Yes1 enzyme (Homo sapiens, UniProt P07947).
T2 construct: made in house
T2 sequence (P07947 whole entry): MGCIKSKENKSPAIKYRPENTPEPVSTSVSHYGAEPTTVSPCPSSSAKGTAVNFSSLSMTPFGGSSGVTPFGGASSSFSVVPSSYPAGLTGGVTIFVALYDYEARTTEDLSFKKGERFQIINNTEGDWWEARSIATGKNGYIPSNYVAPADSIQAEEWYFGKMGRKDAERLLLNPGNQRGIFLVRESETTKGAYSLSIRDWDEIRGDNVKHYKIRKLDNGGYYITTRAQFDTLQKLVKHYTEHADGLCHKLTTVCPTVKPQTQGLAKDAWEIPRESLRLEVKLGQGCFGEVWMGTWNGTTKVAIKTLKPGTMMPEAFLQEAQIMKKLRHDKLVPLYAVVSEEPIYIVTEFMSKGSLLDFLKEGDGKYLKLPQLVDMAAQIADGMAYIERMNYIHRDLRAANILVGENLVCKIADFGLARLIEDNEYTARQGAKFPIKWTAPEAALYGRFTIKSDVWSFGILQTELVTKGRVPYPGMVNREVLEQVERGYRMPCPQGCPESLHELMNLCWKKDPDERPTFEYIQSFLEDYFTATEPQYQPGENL
Description: Yes1 enzyme inhibitory activity (time-resolved fluorometry, biotinylated peptide phosphorylation). The settings on record: biotinylated peptide phosphorylation, read-out: YES_IC50. Put shortly:
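Inhibition was expressed against a compound-free control to give IC50, using TR-FRET read-out (Eu-cryptate anti-pTyr antibody, streptavidin-XL665).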

Assay [3] concerns the target T3, human Lck enzyme (Homo sapiens, UniProt P06239).
T3 construct: purchased Carna Biosciences, Inc. 08-170
The experiment in a line: Lck enzyme inhibitory activity (time-resolved fluorometry, biotinylated peptide phosphorylation). The settings on record: biotinylated peptide phosphorylation, read-out: LCK_IC50. In outline:
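Readout pairs a europium cryptate-labelled anti-phosphotyrosine antibody with XL665-streptavidin, measured by time-resolved fluorescence. IC50 derived from percent inhibition against untreated controls.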

T1 sequence (P12931 whole entry): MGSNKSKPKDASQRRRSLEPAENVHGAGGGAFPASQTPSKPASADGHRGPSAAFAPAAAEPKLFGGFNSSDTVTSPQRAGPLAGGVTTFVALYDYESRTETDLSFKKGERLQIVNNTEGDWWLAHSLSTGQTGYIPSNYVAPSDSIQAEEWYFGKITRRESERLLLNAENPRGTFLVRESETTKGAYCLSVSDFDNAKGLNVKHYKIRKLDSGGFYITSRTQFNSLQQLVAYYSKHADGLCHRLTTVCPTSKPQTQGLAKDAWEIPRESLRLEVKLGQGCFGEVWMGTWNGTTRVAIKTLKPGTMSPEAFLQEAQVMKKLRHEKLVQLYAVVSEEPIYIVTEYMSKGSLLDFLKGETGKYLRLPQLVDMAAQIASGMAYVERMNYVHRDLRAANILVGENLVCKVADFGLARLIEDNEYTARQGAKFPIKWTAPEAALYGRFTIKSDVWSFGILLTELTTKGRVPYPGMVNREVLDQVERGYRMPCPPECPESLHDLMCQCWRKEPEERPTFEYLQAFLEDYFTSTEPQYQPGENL
T3 sequence (P06239 whole entry): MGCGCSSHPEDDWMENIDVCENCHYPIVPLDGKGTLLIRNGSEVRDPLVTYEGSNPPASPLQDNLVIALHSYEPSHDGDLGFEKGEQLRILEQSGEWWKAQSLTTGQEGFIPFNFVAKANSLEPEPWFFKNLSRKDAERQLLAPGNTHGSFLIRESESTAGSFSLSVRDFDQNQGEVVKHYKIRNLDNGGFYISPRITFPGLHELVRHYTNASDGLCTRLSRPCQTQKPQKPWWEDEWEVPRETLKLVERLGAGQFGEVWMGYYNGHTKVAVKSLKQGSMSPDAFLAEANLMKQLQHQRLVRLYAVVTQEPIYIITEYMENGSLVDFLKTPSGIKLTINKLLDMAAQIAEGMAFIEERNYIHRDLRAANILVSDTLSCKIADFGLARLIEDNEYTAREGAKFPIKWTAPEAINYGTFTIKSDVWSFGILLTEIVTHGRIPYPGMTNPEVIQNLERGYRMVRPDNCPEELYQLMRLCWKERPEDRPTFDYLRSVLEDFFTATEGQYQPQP

For the compound `Cc1cc2cc(C(=O)c3cnn(-c4cnc(Oc5c(F)cccc5F)cc4C)c3N)[nH]c2cc1N1C(=O)N[C@@H](C(C)C)C1=O` [Example 5-1-453, (5S)-3-[2-[5-amino-1-[6-(2,6-difluorophenoxy)-4-methylpyridin-3-yl]pyrazole-4-carbonyl]-5-methyl-1H-indol-6-yl]-5-propan-2-ylimidazolidine-2,4-dione], the IC50 is 130 nM in assay [1], 3.2 nM in assay [2] and 12 nM in assay [3].
On the same counts, the results for `Cc1cc2cc(C(=O)c3cnn(-c4cnc(Oc5c(F)cccc5F)cc4C)c3N)[nH]c2cc1N1C(=O)[C@@H]2CCCN2C1=O` [Example 5-1-454, (7aS)-2-[2-[5-amino-1-[6-(2,6-difluorophenoxy)-4-methylpyridin-3-yl]pyrazole-4-carbonyl]-5-methyl-1H-indol-6-yl]-5,6,7,7a-tetrahydropyrrolo[1,2-c]imidazole-1,3-dione] are 40 nM, 1.7 nM and 5.1 nM.
On the same counts, the results for `Cc1cc2cc(C(=O)c3cnn(-c4cnc(Oc5c(F)cccc5F)cc4C)c3N)[nH]c2cc1N1C(=O)[C@@H]2C[C@@H](O)CN2C1=O` [Example 5-1-455, (6R,7aS)-2-[2-[5-amino-1-[6-(2,6-difluorophenoxy)-4-methylpyridin-3-yl]pyrazole-4-carbonyl]-5-methyl-1H-indol-6-yl]-6-hydroxy-5,6,7,7a-tetrahydropyrrolo[1,2-c]imidazole-1,3-dione] are 23 nM, 0.86 nM and 2.6 nM.
Regarding `Cc1cc2cc(C(=O)c3cnn(-c4ccc(Oc5ccccc5F)cc4C)c3N)[nH]c2cc1N1C(=O)N[C@@H](CO)C1=O` [Example 5-1-456, (5S)-3-[2-[5-amino-1-[4-(2-fluorophenoxy)-2-methylphenyl]pyrazole-4-carbonyl]-5-methyl-1H-indol-6-yl]-5-(hydroxymethyl)imidazolidine-2,4-dione], the values for the IC50 in assay [1], in assay [2] and in assay [3] were 8.8 nM, 0.4 nM and 2.2 nM, respectively.
Consider `Cc1cc2cc(C(=O)c3cnn(-c4ccc(Oc5ccccc5F)cc4C)c3N)[nH]c2cc1N1C(=O)N[C@@H](Cc2ccccc2)C1=O` [Example 5-1-457, (5S)-3-[2-[5-amino-1-[4-(2-fluorophenoxy)-2-methylphenyl]pyrazole-4-carbonyl]-5-methyl-1H-indol-6-yl]-5-benzylimidazolidine-2,4-dione], for which the IC50 in assay [1] was 78 nM; in assay [2], 2.3 nM; in assay [3] it was 19 nM.
Take `Cc1cc2cc(C(=O)c3cnn(-c4ccc(Oc5ccccc5F)cc4C)c3N)[nH]c2cc1N1C(=O)[C@@H]2CCCN2C1=O` [Example 5-1-458, (7aS)-2-[2-[5-amino-1-[4-(2-fluorophenoxy)-2-methylphenyl]pyrazole-4-carbonyl]-5-methyl-1H-indol-6-yl]-5,6,7,7a-tetrahydropyrrolo[1,2-c]imidazole-1,3-dione]: the IC50 came out at 16 nM in assay [1], 0.73 nM in assay [2] and 4 nM in assay [3].
Regarding `Cc1cc2cc(C(=O)c3cnn(-c4ccc(Oc5ccccc5F)cc4C)c3N)[nH]c2cc1N1C(=O)[C@@H]2C[C@@H](O)CN2C1=O` [Example 5-1-459, (6R,7aS)-2-[2-[5-amino-1-[4-(2-fluorophenoxy)-2-methylphenyl]pyrazole-4-carbonyl]-5-methyl-1H-indol-6-yl]-6-hydroxy-5,6,7,7a-tetrahydropyrrolo[1,2-c]imidazole-1,3-dione], the IC50 in assay [1] was 7.7 nM; in assay [2], 0.44 nM; in assay [3] it was 2.7 nM.
On the same counts, the results for `Cc1cc2cc(C(=O)c3cnn(-c4cnc(Oc5ccccc5F)cc4C)c3N)[nH]c2cc1NS(=O)(=O)c1cc(F)cc(F)c1` [Example 5-1-460, N-[2-[5-amino-1-[6-(2-fluorophenoxy)-4-methylpyridin-3-yl]pyrazole-4-carbonyl]-5-methyl-1H-indol-6-yl]-3,5-difluorobenzenesulfonamide] are 770 nM, 4.5 nM and 200 nM.
Turning to `Cc1cc(C)c(S(=O)(=O)Nc2cc3[nH]c(C(=O)c4cnn(-c5cnc(Oc6ccccc6F)cc5C)c4N)cc3cc2C)c(C)c1` [Example 5-1-461], the results for the IC50 in assay [1], in assay [2] and in assay [3] were 3500 nM, 17 nM and 590 nM, respectively.
On the same counts, the results for `Cc1cccc(S(=O)(=O)Nc2cc3[nH]c(C(=O)c4cnn(-c5cnc(Oc6ccccc6F)cc5C)c4N)cc3cc2C)c1` [Example 5-1-462, N-[2-[5-amino-1-[6-(2-fluorophenoxy)-4-methylpyridin-3-yl]pyrazole-4-carbonyl]-5-methyl-1H-indol-6-yl]-3-methylbenzenesulfonamide] are 1000 nM, 6.1 nM and 260 nM.
For `Cc1cc2cc(C(=O)c3cnn(-c4cnc(Oc5ccccc5F)cc4C)c3N)[nH]c2cc1NS(=O)(=O)c1cccc(C(F)(F)F)c1` [Example 5-1-463, N-[2-[5-amino-1-[6-(2-fluorophenoxy)-4-methylpyridin-3-yl]pyrazole-4-carbonyl]-5-methyl-1H-indol-6-yl]-3-(trifluoromethyl) benzenesulfonamide] the same measures were 1900 nM, 12 nM and 420 nM.
In the case of `Cc1cc2cc(C(=O)c3cnn(-c4cnc(Oc5ccccc5F)cc4C)c3N)[nH]c2cc1NS(=O)(=O)c1cccc(Cl)c1` [Example 5-1-464, N-[2-[5-amino-1-[6-(2-fluorophenoxy)-4-methylpyridin-3-yl]pyrazole-4-carbonyl]-5-methyl-1H-indol-6-yl]-3-chlorobenzenesulfonamide], the IC50 in assay [1] was 1200 nM; in assay [2], 9.3 nM; in assay [3], 310 nM.
For `Cc1cc2cc(C(=O)c3cnn(-c4cnc(Oc5ccccc5F)cc4C)c3N)[nH]c2cc1NS(=O)(=O)c1cccc2ccccc12` [Example 5-1-465, N-[2-[5-amino-1-[6-(2-fluorophenoxy)-4-methylpyridin-3-yl]pyrazole-4-carbonyl]-5-methyl-1H-indol-6-yl]naphthalene-1-sulfonamide] the same measures were 4000 nM, 25 nM and 510 nM.
For `Cc1cc2cc(C(=O)c3cnn(-c4cnc(Oc5ccccc5F)cc4C)c3N)[nH]c2cc1NS(=O)(=O)c1ccc2ccccc2c1` [Example 5-1-466, N-[2-[5-amino-1-[6-(2-fluorophenoxy)-4-methylpyridin-3-yl]pyrazole-4-carbonyl]-5-methyl-1H-indol-6-yl]naphthalene-2-sulfonamide] the same measures were 4400 nM, 28 nM and 520 nM.
For `Cc1cc2cc(C(=O)c3cnn(-c4cnc(Oc5ccccc5F)cc4C)c3N)[nH]c2cc1NS(=O)(=O)c1csc2ccccc12` [Example 5-1-467, N-[2-[5-amino-1-[6-(2-fluorophenoxy)-4-methylpyridin-3-yl]pyrazole-4-carbonyl]-5-methyl-1H-indol-6-yl]-1-benzothiophene-3-sulfonamide] the same measures were 3800 nM, 24 nM and 370 nM.
For the compound `Cc1cc(-n2ncc(C(=O)c3cc4cc(C)c(N5C(=O)NC6(CCC6)C5=O)cc4[nH]3)c2N)ccc1Oc1ccccc1F` [Example 5-1-468, 7-[2-[5-amino-1-[4-(2-fluorophenoxy)-3-methylphenyl]pyrazole-4-carbonyl]-5-methyl-1H-indol-6-yl]-5,7-diazaspiro[3.4]octane-6,8-dione], the IC50 in assay [1] was determined as 7800 nM; in assay [2], 11 nM; in assay [3] it was 430 nM.
For `Cc1cc(-n2ncc(C(=O)c3cc4cc(C)c(N5C(=O)NC6(CCOCC6)C5=O)cc4[nH]3)c2N)ccc1Oc1ccccc1F` [Example 5-1-469, 3-[2-[5-amino-1-[4-(2-fluorophenoxy)-3-methylphenyl]pyrazole-4-carbonyl]-5-methyl-1H-indol-6-yl]-8-oxa-1,3-diazaspiro[4.5] decane-2,4-dione] the same measures were 2700 nM, 9 nM and 100 nM.
Consider `Cc1cc(-n2ncc(C(=O)c3cc4cc(C)c(N5C(=O)NC6(CC6)C5=O)cc4[nH]3)c2N)ccc1Oc1ccccc1F` [Example 5-1-473, 6-[2-[5-amino-1-[4-(2-fluorophenoxy)-3-methylphenyl]pyrazole-4-carbonyl]-5-methyl-1H-indol-6-yl]-4,6-diazaspiro[2.4]heptane-5,7-dione], for which the IC50 came to 3500 nM in assay [1], 17 nM in assay [2] and 240 nM in assay [3].
On to `Cc1cc(-n2ncc(C(=O)c3cc4cc(C)c(N5C(=O)NC6(COC6)C5=O)cc4[nH]3)c2N)ccc1Oc1ccccc1F` [Example 5-1-475, 7-[2-[5-amino-1-[4-(2-fluorophenoxy)-3-methylphenyl]pyrazole-4-carbonyl]-5-methyl-1H-indol-6-yl]-2-oxa-5,7-diazaspiro[3.4] octane-6,8-dione], for which the IC50 was 1400 nM in assay [1], 8.2 nM in assay [2] and 71 nM in assay [3].
For `Cc1cc2cc(C(=O)c3cnn(-c4ccc(Oc5ccccc5F)cc4C)c3N)[nH]c2cc1N1C(=O)N[C@@H](C(C)C)C1=O` [Example 5-1-476, (5S)-3-[2-[5-amino-1-[4-(2-fluorophenoxy)-2-methylphenyl]pyrazole-4-carbonyl]-5-methyl-1H-indol-6-yl]-5-propan-2-ylimidazolidine-2,4-dione] the same measures were 97 nM, 2.9 nM and 12 nM.
